Test results published in US20030054524A1, “Method of increasing the fatty acid content in plant seeds” (priority 1999, published 2003).

Experiments:
clKASIV = molecular target: T1, clKASIV (Cuphea lanceolata, UniProt Q949J2); test: Enzyme assay: sensitivity of recombinant clKASIV to cerulenin; assay type: biochemical; details: condensation assay with [2-14C]-malonyl-ACP
T1 sequence (Q949J2 106-538): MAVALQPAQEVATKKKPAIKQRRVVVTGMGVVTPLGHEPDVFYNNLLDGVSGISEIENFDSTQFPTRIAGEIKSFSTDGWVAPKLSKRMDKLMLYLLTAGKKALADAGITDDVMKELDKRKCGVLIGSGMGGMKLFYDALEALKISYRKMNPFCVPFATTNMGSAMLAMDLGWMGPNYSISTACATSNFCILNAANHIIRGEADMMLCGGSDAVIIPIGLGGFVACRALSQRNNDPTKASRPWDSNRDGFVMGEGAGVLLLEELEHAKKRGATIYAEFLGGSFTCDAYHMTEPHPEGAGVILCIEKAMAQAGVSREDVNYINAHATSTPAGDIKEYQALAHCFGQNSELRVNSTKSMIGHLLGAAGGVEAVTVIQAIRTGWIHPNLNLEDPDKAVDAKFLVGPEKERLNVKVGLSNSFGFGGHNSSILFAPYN
Description: The substrate specificities of the recombinant KASII and KASIV enzymes was investigated by incorporating radioactivity of [2-1^4C]-malonyl-ACP into the condensation products. The batch ([…]) contained 100 mM sodium phosphate, pH 7.6, 10 µM acyl-ACP with a specific chain length, 7.5 μM [2-^14C]-malonyl-ACP (0.74 MBq/mmol), 2 mM NADPH, 2 mM DTT, 0.6 Fkat of affinity-purified recombinant GST-β-ketoacyl-ACP-reductase fusion protein of C. lanceolata (Klein et al. (1992) Mol. Gen. Genet. 233:122-128) and 2 μg of the recombinant KASII/IV preparation. The β-hydroxyacyl-ACPs that were synthesized were precipitated, washed and dissolved as described by Winter et al. (1997) Biochem. J 321:313-318 and then separated by a 2.5 M urea-PAGE. After transfer to an Immobilon P membrane by electroblotting at 0.8 mA/cm for one hour, the reaction products were visualized by autoradiography after five-day exposure on an x-ray film (Hyperfilm MP, Amersham, Braunschweig, Germany).
In the assays, saturated acyl-ACP (C4 through C16) was added to the reaction mixture together with [2- ^4C]-malonyl-ACP and was incubated for ten minutes. Incorporation of the radioactivity from [2- ^4C]-malonyl-ACP into the O-ketoacyl-ACP product, which was reduced to β-hydroxyacyl-ACP for the analysis, was determined. […]

enzymes of the KASI type = details: in the presence of 5 μM cerulenin; cited from earlier work

In the case of `C/C=C/C/C=C/CCC(=O)[C@H]1O[C@H]1C(N)=O` [cerulenin, Cerulenin], the IC50 (clKASIV) is given as 20 µM and the “inactivation of enzymes of the KASI type by cerulenin” value (enzymes of the KASI type) is given as “completely inactivated”.
